Source: patent US20170296457A1, “PRODUCTS AND METHODS FOR TREATING PERIORBITAL DYSCHROMIA” (The Procter & Gamble Company, priority 2016, published 2017)

Test system: B16-F1 mouse melanoma cell line
Experiment: B16 melanin synthesis inhibition assay
Type: cell-based
Conditions: B16-F1 cells, OD at 410 nm
Description: In this example, a commercially available B16-F1 mouse melanoma cell line from American Tissue Culture Collection, Virginia, USA was employed in a conventional melanin synthesis inhibition assay. The cell culture medium used in the assay is 500 mL of Dulbecco's Modified Eagle's Medium (DMEM), 50 mL Fetal Bovine Serum (FBS), and 5 mL of penicillin-streptomycin liquid. B16-F1 cells that are cultured in this medium and grown to greater than 90% confluency will synthesize melanin. While not intending to be bound by any theory, it is hypothesized that the melanin synthesis is stimulated by the culture medium and/or stress induced by growth to a high confluency. […] Equipment used in the assay include a CO2 incubator, such as a Forma Series Model 3110 by Therma Scientific, Massachusetts, USA; a hemocytometer, such as a Bright Line model by Hauser Scientific, Pennsylvania, USA; and a UV-Visible Spectrum Plate Reader, such as a SpectraMax250 from Molecular Devices, California, USA. […] Day 3: The cells from the T-150 flask are trypsinized, and the concentration of cells is determined using the hemacytometer. […] Read the 96 well plate using the UV-Vis Plate Reader at 410 nm to optically measure the amount of melanin produced between wells that are treated with the pumpkin seed extract and control wells that are not. […] The concentration of test agent needed to provide the IC 50 is recorded.

- Concentration Needed for IC 50 (v/v): 0.008 v/v
Structure (SMILES): Oc1ccc(OC2CCCCO2)cc1 (stereo not shown) [Deoxyarbutin]
